Data reported in patent publication US20020016346A1, “Method for enhancing outflow of aqueous humor in treatment of glaucoma” (The Regents University of California, a California …, priority 1994, published 2002).

System: eye of a rabbit
Test: Intra-ocular pressure in rabbits after subconjunctival injection
Format: in vivo
Description: Male albino New Zealand rabbits weighing≧2 Kg were used for in vivo experiments performed under various active animal use protocols approved by the Institutional Animal Care and Use Committee at UC Davis. Animals were sedated with an intravenous dose of Napentabarbitol, 1-2 mg/Kg to permit their handling and frequent measurement of intra-ocular pressure (IOP). Topical anesthesia consisting of Proparacaine HCl (Alcaine™) was used for IOP measurements. A pneumatonometer (Mentor O & O Classic Model 30 Penumatonometer™, Norwell, Mass.) calibrated to a known (25 mmHg) pressure prior to each experiment was used for all IOP measurements. This model of Pneumatonometer provides a readout of standard deviation of each measurement; only measurements with a standard deviation of≦1 mmHg were accepted and most were less than 0.5 mmHg. Following sedation, IOP measurements were carried out over at least 30 minutes to assure that a stable baseline IOP was present.
Drugs and/or vehicle was administered to one eye of each animal via subconjunctival injection in order to bypass any barriers to drug penetration, such as an intact corneal and conjunctival epithelium and to achieve rapid and high concentrations of drug, bypassing epithelial barriers. The contralateral eye treated only with vehicle served as a control for each animal. Two syringes were prepared for each experiment, one containing drug and vehicle, the other containing only vehicle. […] Injections raised a prominent bleb, confirming subconjunctival placement of the drug or vehicle. This bleb then smoothed out over about ten minutes, indicating diffusion of the drug or vehicle throughout the subconjunctival space.
Measurements of intra-ocular pressure were taken at various intervals following the subconjunctival administration of the drug and/or vehicle. IOP in both eyes fluctuated over time reflecting the level of anesthesia. During the course of the experiment, the animal handlers and investigators were masked as to which eve had received the drug or control injection.

## CCCCNc1cc(C(=O)O)cc(S(N)(=O)=O)c1Oc1ccccc1 [bumetanide]
Average of two experiments, FIG. 6
  average IOP lowering effect: over 20%
Bumetanide 10^−5 M in DMSO, 0.1 cc subconjunctival, first animal
  effect on IOP: rapid and pronounced and lasted beyond two hours
